Here are results for 15 molecules from PubChem BioAssay (NCI).

Test systems include SK-MEL-28 melanoma; CAKI-1 renal; HOP-62 NSCLC; NCI/ADR-RES ovarian; UACC-62 melanoma; A498 renal; SF-268 CNS; HL-60(TB) leukemia; T-47D breast; MDA-MB-231 breast.
Holding throughout (assay): inhibition of tumour cell growth, NCI panel, 48 h

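Protocol summary: plate cells (96-well), add compound at 5 concentrations, incubate 48 h, interpolate endpoints linearly. TGI: total growth inhibition.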 Bounds are passed on as bounds.

On to `COC(=O)c1ccc(N=NN(C)COc2ccc(Br)cc2)cc1`, for which the TGI in the assay on SK-MEL-28 melanoma, in the assay on CAKI-1 renal, with HOP-62 NSCLC, with NCI/ADR-RES ovarian, in the assay on UACC-62 melanoma and in the assay with A498 renal was above 100 µM in each case. Moreover, the results for the TGI in the assay on SF-268 CNS and in the assay on HL-60(TB) leukemia were above 100 µM and 59.7 µM, respectively.

Regarding `Cc1cc(/C=C/c2cc[n+](C)c3ccccc23)c(O)c2ncccc12`, the TGI with SK-MEL-28 melanoma stood at 13.6 µM; with CAKI-1 renal, 27.6 µM; in the assay with HOP-62 NSCLC, 15 µM; with UACC-62 melanoma it was 9.19 µM; in the assay with A498 renal, 15.5 µM; in the assay with SF-268 CNS it was 11 µM. Moreover, in the assay with HL-60(TB) leukemia, the TGI was above 26.9 µM.

Consider `CCOc1ccc(N/C(=C(/C(Cl)=C(/Cl)N2CCCCC2)[N+](=O)[O-])n2nnc3ccccc32)cc1`, for which the TGI in the assay with SK-MEL-28 melanoma came out at 34.2 µM; in the assay on CAKI-1 renal, 28.4 µM; in the assay on T-47D breast, 49.6 µM; in the assay on HOP-62 NSCLC, 42.6 µM; with NCI/ADR-RES ovarian it was 43.5 µM; in the assay with UACC-62 melanoma, 31.6 µM. Also, the TGI with A498 renal stood at 34.9 µM; in the assay with SF-268 CNS, 37.4 µM; in the assay with MDA-MB-231 breast it was 44.5 µM.

As for `CC(C)NC(=O)N(Nc1ccccc1)C(C)(C)C`, the TGI in the assay on SK-MEL-28 melanoma, in the assay with CAKI-1 renal, in the assay on HOP-62 NSCLC, with NCI/ADR-RES ovarian, in the assay on UACC-62 melanoma and in the assay on A498 renal was above 100 µM each time. The TGI in the assay on HL-60(TB) leukemia and in the assay on MDA-MB-231 breast was above 100 µM throughout.

Consider `CC(=O)NC1(c2cc3ccccc3s2)CCCCCC1`, for which the TGI with SK-MEL-28 melanoma, with CAKI-1 renal, in the assay with HOP-62 NSCLC, in the assay with NCI/ADR-RES ovarian, with UACC-62 melanoma and in the assay on A498 renal was above 100 µM in each case. The TGI in the assay with SF-268 CNS was 40.9 µM; with HL-60(TB) leukemia it was 55.4 µM; in the assay with MDA-MB-231 breast, above 100 µM.

In the case of `COC1CN(C)C(=Nc2cccc3ccccc23)S1` (stereo unspecified), the TGI with SK-MEL-28 melanoma, with CAKI-1 renal, in the assay on T-47D breast, in the assay with HOP-62 NSCLC, with NCI/ADR-RES ovarian and with UACC-62 melanoma was above 10 µM in each case. Besides, the TGI in the assay on SF-268 CNS, in the assay with HL-60(TB) leukemia and in the assay with MDA-MB-231 breast was above 10 µM throughout.

As for `Cn1c(=O)c2c(nc3n2CCCC(=O)N3CC(O)CCl)n(C)c1=O` (stereo unspecified), the TGI in the assay with SK-MEL-28 melanoma, with CAKI-1 renal, in the assay with T-47D breast, in the assay with HOP-62 NSCLC, with NCI/ADR-RES ovarian and in the assay with UACC-62 melanoma was above 100 µM each time. Besides, the TGI with A498 renal, in the assay on SF-268 CNS and in the assay on HL-60(TB) leukemia was above 100 µM each time.

For `Cc1c(N2CCN(C)CC2)nc2ccc(Cl)cc2c1-c1ccccc1`, the TGI is 32.9 µM in the assay on SK-MEL-28 melanoma; 41.6 µM in the assay on CAKI-1 renal; 36.6 µM with HOP-62 NSCLC; 30.3 µM with UACC-62 melanoma; 25.3 µM with A498 renal; above 100 µM in the assay on SF-268 CNS. Besides, in the assay on HL-60(TB) leukemia, the TGI came out at 34.5 µM.

For the molecule `CN(/N=C/c1cccc2cccnc12)c1ccc(Cl)cc1[N+](=O)[O-]`, the TGI with CAKI-1 renal, in the assay on HOP-62 NSCLC, in the assay with NCI/ADR-RES ovarian, in the assay on UACC-62 melanoma, with A498 renal and in the assay with SF-268 CNS was above 100 µM in each case. For the same molecule, the TGI with HL-60(TB) leukemia and with MDA-MB-231 breast was above 100 µM throughout.

As to `COC(O)C(=O)c1ccc2c(c1)CC1(C2)Cc2cc3c(cc2C1=O)CCC3` (stereo unspecified), the TGI is 29.6 µM with SK-MEL-28 melanoma; 31.2 µM in the assay on CAKI-1 renal; 48.1 µM in the assay with T-47D breast; 38.8 µM in the assay with HOP-62 NSCLC; above 100 µM in the assay with NCI/ADR-RES ovarian; 34 µM in the assay with UACC-62 melanoma. The TGI in the assay with A498 renal stood at 37.1 µM; in the assay on SF-268 CNS it was 43.3 µM; in the assay with MDA-MB-231 breast, 73.3 µM.

Turning to `Cc1ccc(O)c(C2=CC(c3cccc(Cl)c3)SC(N)=N2)c1` (stereo unspecified), the TGI in the assay with CAKI-1 renal is above 100 µM; in the assay on T-47D breast, 99.2 µM; with HOP-62 NSCLC, 64.1 µM; in the assay on NCI/ADR-RES ovarian, above 100 µM; in the assay on UACC-62 melanoma, 28.8 µM; in the assay on SF-268 CNS, above 100 µM. The TGI with HL-60(TB) leukemia stood at 61.6 µM.

Consider `COC1C(O)C(n2ncc3c(SC)nc(SC)nc32)OC1C(O)CO` (stereo unspecified), for which the TGI in the assay with SK-MEL-28 melanoma, in the assay on HOP-62 NSCLC, in the assay on NCI/ADR-RES ovarian, in the assay on UACC-62 melanoma, in the assay on A498 renal and in the assay on SF-268 CNS was above 100 µM each time. This molecule yielded a TGI in the assay with HL-60(TB) leukemia above 100 µM.

As to `CCOC(=O)C1=CCOc2cc(N(C)C)ccc21`, the TGI in the assay with SK-MEL-28 melanoma, with CAKI-1 renal, in the assay on HOP-62 NSCLC, in the assay with NCI/ADR-RES ovarian, with UACC-62 melanoma and with A498 renal was above 100 µM each time. In addition, the TGI with SF-268 CNS, in the assay with HL-60(TB) leukemia and in the assay on MDA-MB-231 breast was above 100 µM each time.

For the molecule `CC(=O)Nc1ccc2c3c(cc(O)c2c1)N(C(=O)CCCCCCC(=O)N1CC(CCl)c2c1cc(O)c1cc(NC(C)=O)ccc21)CC3CCl` (stereo unspecified), the TGI with SK-MEL-28 melanoma was above 100 µM; in the assay on CAKI-1 renal, 0.894 µM; in the assay on T-47D breast, below 0.01 µM; with NCI/ADR-RES ovarian, above 74.6 µM; in the assay on UACC-62 melanoma, 0.013 µM; in the assay on A498 renal, below 0.01 µM. In addition, the TGI with SF-268 CNS is 0.464 µM.

For the molecule `Cc1ccc(S(=O)(=O)Oc2nc3ccccc3nc2OS(=O)(=O)c2ccc(C)cc2)cc1`, the TGI in the assay on SK-MEL-28 melanoma is above 100 µM; in the assay on CAKI-1 renal it was 82.4 µM; in the assay with NCI/ADR-RES ovarian, above 100 µM; with UACC-62 melanoma, above 100 µM; in the assay with A498 renal, above 100 µM; in the assay with SF-268 CNS, above 100 µM. Also, the TGI with HL-60(TB) leukemia and in the assay on MDA-MB-231 breast was above 100 µM throughout.
